Assay results from PubChem BioAssay AID1845200 (Molecular Pharmacology Branch, DTP, NCI, 2023).

System: ASPS-1 complex tumor spheroids, viability
Test: Anticancer human tumor ASPS-1 cell line growth inhibition;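 note: spheroids exposed to agents for 7 days after 3 days of growth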;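 for viability, T/C: 100% = DMSO vehicle treated spheroids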
Conditions: for IC50: curve of first compound; for viability, T/C: stronger effect = lower value
Summary of the method: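 Complex spheroids of malignant cells with endothelial cells and mesenchymal stem cells; agents alone or combined, from near clinical Cmax (or 10 microM if unknown) down in half-log steps, 0.25% DMSO final.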

[1] = second compound 30 pM, first compound 0.0316 µM
[2] = second compound 30 pM, first compound 0.1 µM
[3] = second compound 30 pM, first compound 0.316 µM
[4] = second compound 30 pM, first compound 1 µM
[5] = second compound 30 pM, first compound 3.16 µM
[6] = second compound 30 pM, first compound 10 µM
[7] = second compound 94.9 pM, first compound 0.0316 µM
[8] = second compound 94.9 pM, first compound 0.1 µM
[9] = second compound 94.9 pM, first compound 0.316 µM
[10] = second compound 94.9 pM, first compound 1 µM
[11] = second compound 94.9 pM, first compound 3.16 µM
[12] = second compound 94.9 pM, first compound 10 µM
[13] = second compound 0.0003 µM, first compound 0.0316 µM
[14] = second compound 0.0003 µM, first compound 0.1 µM
[15] = second compound 0.0003 µM, first compound 0.316 µM
[16] = second compound 0.0003 µM, first compound 1 µM
[17] = second compound 0.0003 µM, first compound 3.16 µM
[18] = second compound 0.0003 µM, first compound 10 µM
[19] = second compound 0.000949 µM, first compound 0.0316 µM
[20] = second compound 0.000949 µM, first compound 0.1 µM
[21] = second compound 0.000949 µM, first compound 0.316 µM
[22] = second compound 0.000949 µM, first compound 1 µM
[23] = second compound 0.000949 µM, first compound 3.16 µM
[24] = second compound 0.000949 µM, first compound 10 µM
[25] = second compound 0.003 µM, first compound 0.0316 µM
[26] = second compound 0.003 µM, first compound 0.1 µM
[27] = second compound 0.003 µM, first compound 0.316 µM
[28] = second compound 0.003 µM, first compound 1 µM
[29] = second compound 0.003 µM, first compound 3.16 µM
[30] = second compound 0.003 µM, first compound 10 µM

| Compound | IC50 (second compound 30 pM) | IC50 (second compound 94.9 pM) | IC50 (second compound 0.0003 µM) | IC50 (second compound 0.000949 µM) | IC50 (second compound 0.003 µM) | viability, T/C [1] | viability, T/C [2] | viability, T/C [3] | viability, T/C [4] | viability, T/C [5] | viability, T/C [6] | viability, T/C [7] | viability, T/C [8] | viability, T/C [9] | viability, T/C [10] | viability, T/C [11] | viability, T/C [12] | viability, T/C [13] | viability, T/C [14] | viability, T/C [15] | further results |
| --- | --- | --- | --- | --- | --- | --- | --- | --- | --- | --- | --- | --- | --- | --- | --- | --- | --- | --- | --- | --- | --- |
| CC(C)n1c(=O)n(C)c2cnc3cc(F)c(-c4ccc(OCCCN5CCCCC5)nc4)cc3c21 + COc1cc2c(cc1O)CCNC21CSC2c3c(OC(C)=O)c(C)c4c(c3C(COC1=O)N1C(O)C3Cc5cc(C)c(OC)c(O)c5C(C21)N3C)OCO4 | > 10 µM | > 10 µM | 0.868 µM | < 0.0316 µM | < 0.0316 µM | 105% | 99.5% | 98.2% | 92.5% | 83.7% | 50% | 96.1% | 84% | 78% | 72.7% | 64.4% | 48.7% | 68.7% | 62.7% | 54.7% | viability, T/C [16]: 50.4%; viability, T/C [17]: 41.6%; viability, T/C [18]: 31.1%; viability, T/C [19]: 48.7%; viability, T/C [20]: 45.6%; viability, T/C [21]: 35.3%; viability, T/C [22]: 25.1%; viability, T/C [23]: 19.9%; viability, T/C [24]: 18.1%; viability, T/C [25]: 15%; viability, T/C [26]: 5.65%; viability, T/C [27]: 1.44%; viability, T/C [28]: 0.39%; viability, T/C [29]: 0.32%; viability, T/C [30]: 0.46% |
| COc1ccc([C@@H](O)c2cc(-c3ncnc4cc(N5CCOCC5)ccc34)c(F)cc2Cl)nn1 + COc1cc2c(cc1O)CCNC21CSC2c3c(OC(C)=O)c(C)c4c(c3C(COC1=O)N1C(O)C3Cc5cc(C)c(OC)c(O)c5C(C21)N3C)OCO4 | 6.58 µM | 4.8 µM | 1.52 µM | 0.379 µM | < 0.0316 µM | 103% | 106% | 103% | 93.2% | 77% | 34.7% | 108% | 106% | 101% | 96.7% | 62.6% | 27.5% | 103% | 108% | 97.7% | viability, T/C [16]: 68.3%; viability, T/C [17]: 18.7%; viability, T/C [18]: 5.37%; viability, T/C [19]: 79.3%; viability, T/C [20]: 81%; viability, T/C [21]: 55%; viability, T/C [22]: 17.5%; viability, T/C [23]: 1.86%; viability, T/C [24]: 0.35%; viability, T/C [25]: 22.5%; viability, T/C [26]: 19.1%; viability, T/C [27]: 9.89%; viability, T/C [28]: 1.71%; viability, T/C [29]: 1.27%; viability, T/C [30]: 1.18% |
